Values quoted from earlier work in patent US12091408B2, “Store overload-induced calcium release inhibitors and methods for producing and using the same” (UTI Limited Partnership, priority 2013, dated 2024).

Experiments:
β-adrenergic receptor = conditions: previously shown by the inventors; cited from earlier work
[1] = system: ventricular arrhythmias and sudden death; conditions: mice, reported; via enhanced FKBP12.6 binding to RyR2; cited from earlier work

SMILES | β-blockade (order of magnitude) (β-adrenergic receptor) | suppression of ventricular arrhythmias and sudden death [1]
COc1ccccc1OCCNCC(O)COc1cccc2[nH]c3ccccc3c12 (stereo not drawn) [Compound 1, carvedilol] | nanomolar | –
COc1ccc2c(c1)CN(C)CCS2 [Compound 99, S107] | – | suppress ventricular arrhythmias and sudden death in mice
COc1ccc2c(c1)CN(C(=O)CCN1CCC(Cc3ccccc3)CC1)CCS2.Cl [Compound 102, JTV519] | – | suppress ventricular arrhythmias and sudden death in mice
